Test results published in patent publication US20240043410A1, “SULPHAMOYL UREA DERIVATIVES CONTAINING ALKYL-OXACYCLOALKYL MOIETY AND USES THEREOF” (NodThera Limited, priority 2020, published 2024).

Assays:
[1] = system: IL-1β release upon NLRP3 activation in peripheral blood mononuclear cells (PBMC); assay: PBMC IC50 Determination Assay; assay type: cell-based; conditions: Homo sapiens; LPS-primed PBMC stimulated with ATP (5 mM) or nigericin (10 μM); IL-1β by ELISA (Protocol A) or HTRF (Protocol B); salts tested
Experimental: PBMC IC50 Determination Assay. The compounds of the present disclosure were tested for their inhibitory activity against IL-1β release upon NLRP3 activation in peripheral blood mononuclear cells (PBMC).
Protocol A. PBMC were isolated from buffy coats by density gradient centrifugation on Histopaque-1077 (Sigma, cat no. 10771). Isolated cells were seeded into the wells of a 96-well plate and incubated for 3 h with lipopolysaccharide (LPS). Following medium exchange, the compounds of the present disclosure were added (a single compound per well) and the cells were incubated for 30 min. Next, the cells were stimulated either with ATP (5 mM) or nigericin (10 μM) for 1 h and the cell culture media from the wells were collected for further analysis. The release of IL1-β into the media was determined by a quantitative detection of IL-1β in the media using an IL-1β enzyme-linked immunosorbent assay (ELISA) Ready-SET-Go!, eBioscience cat. No. 88-7261-88. Briefly, in a first step, high affinity binding plates (Corning, Costar 9018 or NUNC Maxisorp Cat No. 44-2404) were coated overnight at 4° C. with specific capture antibody included in the kit (anti-human IL-1β ref. 14-7018-68). Subsequently, plates were blocked with blocking buffer for 1 h at room temperature (rt) and after washing with a buffer (PBS with 0.05% Tween-20) incubated with protein standard and culture media. After 2 h of incubation at rt, plates were washed and incubated with biotinylated detection antibody included in the kit (anti-human IL-1β Biotin ref. 33-7110-68) for 1 h at rt. Plates were washed and incubated with HRP-streptavidin for 30 min at rt and washed again. The signal was developed after addition of 3,3′,5,5′-tetramethylbenzidine-peroxidase (TMB) until colour appeared and the reaction was stopped by 2 M H2SO4. A microplate spectrophotometer (BioTek) was used to detect signals with 450 nm. The detection range of IL-1β 3 ELISA was 2-150 ng/mL.
Protocol B. PBMC were isolated from buffy coats by density gradient centrifugation on Histopaque-1077 (Sigma, cat no. 10771). Isolated cells were seeded into the wells (280,000 cells/well) of a 96-well plate and incubated for 3 h with lipopolysaccharide (LPS, 1 μg/mL diluted 1000× from a 1 mg/mL stock solution). The compounds of the present disclosure were added (a single compound per well) and the cells were incubated for 30 min. Next, the cells were stimulated with ATP (5 mM final concentration diluted 20× from a 100 mM stock solution) for 1 h and the cell culture media from the wells were collected for further analysis. The release of IL-1β into the media was determined by quantitative detection of IL-1 in the media using HTRF®, CisBio cat. No. 62HIL1BPEH. Briefly, cell culture supernatant were dispensed directly into the assay plate containing antibodies labelled with the HTRF® donor and acceptor. A microplate spectrophotometer (BMG) was used to detect signals at 655 nm and 620 nm. The detection range of IL-1β HTRF® was […].

PAMPA permeability assay = assay type: in vitro ADME; conditions: 10 μM donor, PBS, 4 hours at room temperature, lecithin/dodecane membrane
Experimental: PAMPA Studies. The compounds of the present disclosure were tested in a PAMPA permeability assay to assess passive transcellular permeation.
Protocol. 0.2 mM working solution was prepared by diluting 10 mM stock solution with DMSO. 10 μM donor solution (5% DMSO) was prepared by diluting 20 μL of working solution with 380 μL PBS. 150 μL of 10 μM donor solutions to each well of the donor plate, whose PVDF membrane was precoated with 5 μL of 1% lecithin/dodecane mixture. Duplicates were prepared. 300 μL of PBS was added to each well of the PTFE acceptor plate. The donor plate and acceptor plate were combined and incubated for 4 hours at room temperature with shaking at 300 rpm. Preparation of TO sample: 20 μL donor solution was transferred to new well followed by the addition of 250 μL PBS (DF: 13.5), 130 μL ACN (containing internal standard) as TO sample. Preparation of acceptor sample: The plate was removed from incubator. 270 μL solution was transferred from each acceptor well and mixed with 130 μL ACN (containing internal standard) as acceptor sample. Preparation of donor sample: 20 μL solution was transferred from each donor well and mixed with 250 μL PBS (DF: 13.5), 130 μL ACN (containing internal standard) as donor sample. Acceptor samples and donor samples were all analysed by LC-MS/MS.
The measured PAMPA permeability values of compounds of the present disclosure are shown in Table B below (“$$$$” means >10 nm/“$$$” means ≥3 and <10 nm/s; “$$” means ≥1 and <3 nm/s; “$” means <1 nm/s).

[2] = Thermodynamic (equilibrium) solubility assay; assay type: physicochemical; conditions: aqueous buffer, thermodynamic from solid; 50 mM pH 7.4 phosphate buffer, 24 hours at room temperature
Experimental: Thermodynamic Solubility Studies. The compounds of the present disclosure were tested in an equilibrium solubility assay.
An appropriate amount of test and control compounds were weighed into lower chambers of Whatman Mini-UniPrep vials. To these were added 50 mM pH 7.4 phosphate buffer (450 μL) to get a super-saturated suspension. The samples were vortexed for at least 2 minutes. The Whatman Mini-UniPrep vials were shaken on a shaker for 24 hours at room temperature at 800 rpm. The vials were centrifuged for 20 minutes (eg. 4000 rpm). Samples were compressed to prepare filtrates for injection into HPLC system and the concentration calculated with a standard curve. […] As shown in the table, compounds of the present disclosure may display improved properties (e.g., over the compounds in the prior art), such as enhanced potency, solubility, membrane permeability and transporter efflux.

P-glycoprotein (P-gp) = molecular target: T1, P-glycoprotein (P-gp) (Homo sapiens, UniProt P08183); assay: P-gp MDCK-MDR1 permeability assay; assay type: in vitro ADME; conditions: efflux ratio, MDCK-MDR1 cells
T1 construct: expressed in transfected cells; host or cells: MDCK-MDR1 cells
Experimental: P-gp MDCK-MDR1 Studies. The compounds of the present disclosure were tested in a MDCK-MDR1 permeability assay to assess whether they are actively transported out of cells by the efflux protein, P-glycoprotein (P-gp).
Protocol. MDCK-MDR1 cells were used between passage numbers 6-30. Cells were seeded onto Millipore Multiscreen Transwell plates at 3.4×10^5 cells/cm^2. The cells were cultured in DMEM and media was changed on Day 3. On Day 4 the P-gp inhibition study was performed. Cell culture and assay incubations were carried out at 37° C. in an atmosphere of 5% CO2 with a relative humidity of 95%. On the day of the assay, the monolayers were prepared by rinsing both apical and basolateral surfaces twice with warmed (37° C.) transport buffer (Hanks Balanced Salt Solution [HBSS] containing 25 mM HEPES and 4.45 mM glucose, pH 7.4). Cells were then incubated with transport buffer containing test compound or positive control inhibitor (elacridar) in both apical and basolateral compartments for 30 minutes at 37° C. The dosing solutions were prepared by diluting digoxin and test compound where applicable to give a final digoxin concentration of 5 μM (final DMSO concentration of 1% v/v). The fluorescent integrity marker lucifer yellow was prepared in receiver solutions in vehicle or test compound-containing transport buffer. After pre-incubation, the transport buffer was removed from both apical and basolateral compartments and replaced with the appropriate dosing or receiver solution.
For assessment of B-A permeability, transport buffer was removed from the basolateral companion plate and replaced with dosing solution. Fresh transport buffer containing lucifer yellow and test compound where applicable (final DMSO concentration 1% v/v) was added to the apical compartment insert, which was then placed into the companion plate. After a 90-minute incubation the apical compartment inserts and the companion plates were separated and compartments sampled for analysis. Seven concentrations of test compound (up to 100 μM) were assessed in addition to a vehicle control (0 μM). A triplicate determination of each concentration was performed. The positive control inhibitor was evaluated in parallel. [^3H]-digoxin was quantified by liquid scintillation counting to give disintegrations per minute (dpm). The integrity of the monolayer throughout the experiment was checked by monitoring lucifer yellow permeation using fluorimetric analysis.
The efflux ratio (ER) values of compounds of the present disclosure are shown in Table B below (“****” means <3; “***” 3≥ and <10; “**” means ≥10 and <30; “*” means ≥30).

T1 sequence (P08183 whole entry): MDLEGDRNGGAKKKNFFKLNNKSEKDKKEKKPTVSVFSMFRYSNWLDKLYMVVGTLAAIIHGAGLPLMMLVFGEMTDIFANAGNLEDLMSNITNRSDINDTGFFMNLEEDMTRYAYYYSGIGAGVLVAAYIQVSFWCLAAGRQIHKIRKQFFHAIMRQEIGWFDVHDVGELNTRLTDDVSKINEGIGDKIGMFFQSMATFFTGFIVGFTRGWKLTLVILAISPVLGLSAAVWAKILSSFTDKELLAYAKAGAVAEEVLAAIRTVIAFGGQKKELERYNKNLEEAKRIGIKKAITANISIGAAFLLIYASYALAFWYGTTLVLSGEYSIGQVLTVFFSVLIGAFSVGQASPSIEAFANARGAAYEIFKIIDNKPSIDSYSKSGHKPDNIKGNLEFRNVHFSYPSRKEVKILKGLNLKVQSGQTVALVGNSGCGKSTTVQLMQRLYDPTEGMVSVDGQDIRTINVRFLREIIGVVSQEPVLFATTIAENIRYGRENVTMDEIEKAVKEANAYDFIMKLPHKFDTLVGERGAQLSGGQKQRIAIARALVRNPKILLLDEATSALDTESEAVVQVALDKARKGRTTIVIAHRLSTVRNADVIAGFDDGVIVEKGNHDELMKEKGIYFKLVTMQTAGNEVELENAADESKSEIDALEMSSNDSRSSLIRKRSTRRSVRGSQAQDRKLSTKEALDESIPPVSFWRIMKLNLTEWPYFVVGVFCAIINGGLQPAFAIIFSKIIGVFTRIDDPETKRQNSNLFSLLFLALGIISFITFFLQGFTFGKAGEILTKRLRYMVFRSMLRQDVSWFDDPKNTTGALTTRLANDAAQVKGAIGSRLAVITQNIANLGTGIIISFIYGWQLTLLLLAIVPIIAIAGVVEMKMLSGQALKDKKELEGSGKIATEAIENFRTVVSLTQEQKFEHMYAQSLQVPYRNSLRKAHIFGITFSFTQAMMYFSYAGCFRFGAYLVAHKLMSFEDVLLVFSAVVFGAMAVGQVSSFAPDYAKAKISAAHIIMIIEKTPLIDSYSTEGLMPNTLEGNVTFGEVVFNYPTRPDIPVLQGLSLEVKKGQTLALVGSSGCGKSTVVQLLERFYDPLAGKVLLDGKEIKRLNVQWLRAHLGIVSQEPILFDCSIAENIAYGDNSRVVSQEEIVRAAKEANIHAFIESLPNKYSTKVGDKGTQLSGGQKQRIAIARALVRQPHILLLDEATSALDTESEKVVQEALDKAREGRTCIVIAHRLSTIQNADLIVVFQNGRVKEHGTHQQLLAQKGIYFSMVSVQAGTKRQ

Row | SMILES | IC50 [1] [nM] | PAMPA Pe (PAMPA permeability assay) | solubility thermodynamic at 24 h [2] [µg/mL] | MDCK-MDR1 ER (P-glycoprotein (P-gp))
1 | Cn1cc(N(CC2CCCCO2)S(=O)(=O)NC(=O)Nc2c3c(cc4c2CC4)CC3)cn1 (stereo in doubt) [Compound 7B, Sodium [(1-methyl-1H-pyrazol-4-yl)({[(2R)-oxan-2-yl]methyl})sulfamoyl]-({tricyclo[6.2.0.0^3,6]deca-1,3(6),7-trien-2-yl}carbamoyl)azanide)] | < 100 | $$$ (“$$$” means ≥3 and <10 nm/s) | 3000 to 10000 | * (“*” means ≥30)
2 | Cn1cc(N(C[C@H]2CCCO2)S(=O)(=O)NC(=O)Nc2c3c(cc4c2CC4)CC3)cn1 [Compound 3B, Sodium [(1-methyl-1H-pyrazol-4-yl)({[(2R)-oxolan-2-yl]methyl})sulfamoyl]-({tricyclo[6.2.0.0^3,6]deca-1,3(6),7-trien-2-yl}carbamoyl)azanide] | < 100 |  |  | * (“*” means ≥30)
3 | Cn1cc(N(CC2CCCCO2)S(=O)(=O)NC(=O)Nc2c3c(cc4c2CC4)CC3)cn1 (stereo in doubt) [Compound 7A, Sodium [(1-methyl-1H-pyrazol-4-yl)({[(2S)-oxan-2-yl]methyl})sulfamoyl]-({tricyclo[6.2.0.0^3,6]deca-1,3(6),7-trien-2-yl}carbamoyl)azanide] | < 100 | $$$ (“$$$” means ≥3 and <10 nm/s) | 3000 to 10000 | ** (“**” means ≥10 and <30)
